Measured values reported in US20180305391A1, “COFACTOR ANALOGS AS […] INHIBITORS FOR TREATING CANCER” (MEMORIAL SLOAN-KETTERING CANCER CENTER, priority 2015, published 2018).
pIC50: −log10 of the molar value. Where two headings read alike, the source gives them in different places.

Tests used:
Type in all cases: biochemical
[1] = biological target: T1, G9a (Homo sapiens, UniProt Q96KQ7); test: PMT filter-paper methylation assay, G9a; conditions: G9a (913-1913) 20 nM final, H3 (1-21 aa), 1 h
T1 construct: G9a (913-1913)
T1 sequence (Q96KQ7 913-1193 limits assumed): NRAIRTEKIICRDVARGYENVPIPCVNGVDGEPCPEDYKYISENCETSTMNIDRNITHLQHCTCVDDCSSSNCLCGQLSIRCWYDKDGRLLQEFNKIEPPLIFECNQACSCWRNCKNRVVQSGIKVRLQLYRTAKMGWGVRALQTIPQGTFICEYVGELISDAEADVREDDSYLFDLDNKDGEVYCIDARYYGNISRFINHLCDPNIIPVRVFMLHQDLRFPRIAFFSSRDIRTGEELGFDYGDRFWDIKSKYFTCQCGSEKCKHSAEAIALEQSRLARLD

[2] = biological target: T2, GLP1 (Homo sapiens, UniProt Q9H9B1); test: PMT filter-paper methylation assay, GLP1; conditions: GLP1 (951-1235) 10 nM final, H3 (1-21 aa), 1 h
T2 construct: GLP1 (951-1235)
T2 sequence (Q9H9B1 982-1266): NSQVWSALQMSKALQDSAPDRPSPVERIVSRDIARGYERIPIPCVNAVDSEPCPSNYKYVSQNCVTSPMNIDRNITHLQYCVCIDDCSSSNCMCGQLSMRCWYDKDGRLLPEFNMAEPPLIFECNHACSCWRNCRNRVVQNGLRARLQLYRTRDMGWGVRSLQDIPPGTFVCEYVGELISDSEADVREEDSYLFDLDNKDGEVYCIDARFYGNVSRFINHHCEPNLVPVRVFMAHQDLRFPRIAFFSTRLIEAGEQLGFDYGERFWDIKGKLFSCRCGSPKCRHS
Method: (§1) Methylation Reaction. The 20 μL methylation reaction was carried out at ambient temperature using two mixtures: A. 10 μl of enzyme mixture in the assay buffer containing 50 mM Hepes (pH=8.0), 0.005% Tween-20, 5 μg/ml BSA and 1 mM TCEP; B. 10 μl of a mixture of 1.5 μM, 0.15 μCi [^3H-Me]-SAM cofactor and 3 μM of the corresponding peptide substrate in the same assay buffer. After A and B were mixed for a designated time period, the reaction mixture was examined with our filter-paper assay.
(§2) Filter-paper Assay. This assay relies on Whatman P-81 filter paper, which binds peptides but not SAM. Protein Methyl Transferases (PMTs) transfer ^3H-Me of [^3H-Me]-SAM to peptide substrates and the resultant ^3H-methylated, filter-paper-bound peptide is quantified with a scintillation counter. […] The radioactivity was quantified by a Beckman LS6000IC liquid scintillation counter.
(§3) Dose-response Curves and IC50. […] After incubating the reaction mixture for the respective reaction time, the conversion was quantified with the filter paper assay as described above. The inhibition was expressed as the percentage between the high control (no inhibition) and the low control (no enzyme) as follows: Percentage Inhibition=[(high control−reading)/(high control−low control)]×100%. […]

[3] = biological target: T3, SET7/9 (Homo sapiens, UniProt Q8WTS6); test: PMT filter-paper methylation assay, SET7/9; conditions: SET7/9 full-length 150 nM final, H3 (1-21 aa), 3 h
T3 construct: SET7/9 Full-length
T3 sequence (Q8WTS6 1-366): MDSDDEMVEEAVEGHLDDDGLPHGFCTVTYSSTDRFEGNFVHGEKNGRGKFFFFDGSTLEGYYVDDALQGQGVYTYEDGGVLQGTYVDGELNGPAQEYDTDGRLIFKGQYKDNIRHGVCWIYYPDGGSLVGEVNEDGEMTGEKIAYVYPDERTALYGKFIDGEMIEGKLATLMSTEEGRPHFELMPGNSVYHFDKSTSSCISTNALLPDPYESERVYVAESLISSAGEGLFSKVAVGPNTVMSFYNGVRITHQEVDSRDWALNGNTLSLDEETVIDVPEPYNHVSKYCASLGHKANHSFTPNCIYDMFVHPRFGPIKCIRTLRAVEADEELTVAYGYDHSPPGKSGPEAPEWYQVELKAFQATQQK
Method: as §1, §2, §3

[4] = biological target: T4, SET8 (Homo sapiens, UniProt Q9NQR1); test: PMT filter-paper methylation assay, SET8; conditions: SET8 (191-352) 1000 nM final, H4 (10-30 aa), 8 h
T4 construct: SET8 (191-352)
T4 sequence (Q9NQR1 191-352 isoform Q9NQR1-2): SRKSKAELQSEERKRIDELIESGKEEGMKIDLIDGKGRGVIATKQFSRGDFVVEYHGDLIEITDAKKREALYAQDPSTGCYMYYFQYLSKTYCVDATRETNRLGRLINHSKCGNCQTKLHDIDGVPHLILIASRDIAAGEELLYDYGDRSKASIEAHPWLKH
Method: as §1, §2, §3

[5] = biological target: T5, SETD2 (Homo sapiens, UniProt Q9BYW2); test: PMT filter-paper methylation assay, SETD2; conditions: SETD2 (1347-1711) 250 nM final, H3 (20-50 aa), 4 h
T5 construct: SETD2 (1347-1711)
T5 sequence (Q9BYW2 1347-1711): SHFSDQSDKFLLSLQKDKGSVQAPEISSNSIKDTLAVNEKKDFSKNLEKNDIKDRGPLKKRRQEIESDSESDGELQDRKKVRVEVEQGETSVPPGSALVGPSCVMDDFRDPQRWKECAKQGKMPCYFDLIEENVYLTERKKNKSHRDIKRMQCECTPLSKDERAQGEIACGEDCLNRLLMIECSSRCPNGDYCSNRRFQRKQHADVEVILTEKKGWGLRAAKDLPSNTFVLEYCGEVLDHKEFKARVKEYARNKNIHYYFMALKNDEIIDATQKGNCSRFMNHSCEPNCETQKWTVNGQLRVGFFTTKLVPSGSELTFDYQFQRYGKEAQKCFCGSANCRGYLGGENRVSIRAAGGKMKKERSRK
Method: as §1, §2, §3

[6] = biological target: T6, PRMT1 (Homo sapiens, UniProt Q99873); test: PMT filter-paper methylation assay, PRMT1; conditions: PRMT1 (10-352), 100 nm, RGG substrate, 1.5 h
T6 construct: PRMT1 (10-352)

[7] = biological target: T7, PRMT3 (Homo sapiens, UniProt O60678); test: PMT filter-paper methylation assay, PRMT3; conditions: PRMT3 (211-531) 100 nM final, RGG, 3 h
T7 construct: PRMT3 (211-531)

[8] = biological target: T8, SUV39H2 (Homo sapiens, UniProt Q9H5I1); test: PMT filter-paper methylation assay, SUV39H2; conditions: SUV39H2 (112-410) 5 nM final, H3 (1-21 aa), 4 h
T8 construct: SUV39H2 (112-410)

[9] = biological target: T9, CARM1 (Homo sapiens, UniProt Q86X55); test: PMT filter-paper methylation assay, CARM1; conditions: H3 (1-40 aa), 7 h
T9 construct: CARM1 (19-608)
T9 sequence (Q86X55 19-608): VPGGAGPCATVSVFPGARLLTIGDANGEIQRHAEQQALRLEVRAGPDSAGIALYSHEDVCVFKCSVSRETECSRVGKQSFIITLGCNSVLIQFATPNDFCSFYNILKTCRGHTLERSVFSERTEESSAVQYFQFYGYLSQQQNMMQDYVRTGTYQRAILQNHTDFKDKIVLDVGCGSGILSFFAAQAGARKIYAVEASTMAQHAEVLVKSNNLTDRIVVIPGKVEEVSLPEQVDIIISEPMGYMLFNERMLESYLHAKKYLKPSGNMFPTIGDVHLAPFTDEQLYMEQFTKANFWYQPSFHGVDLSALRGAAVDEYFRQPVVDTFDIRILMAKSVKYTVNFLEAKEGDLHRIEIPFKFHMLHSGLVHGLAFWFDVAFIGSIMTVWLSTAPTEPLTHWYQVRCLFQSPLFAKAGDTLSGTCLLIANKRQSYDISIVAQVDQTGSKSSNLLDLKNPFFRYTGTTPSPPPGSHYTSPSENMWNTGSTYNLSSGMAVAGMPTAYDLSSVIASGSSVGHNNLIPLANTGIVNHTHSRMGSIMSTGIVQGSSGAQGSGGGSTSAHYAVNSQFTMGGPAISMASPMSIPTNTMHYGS

[10] = biological target: T10, SMYD2-FL (Homo sapiens, UniProt Q9NRG4); test: PMT filter-paper methylation assay, SMYD2; conditions: SMYD2 full-length 50 nM final, p53 (360-393 aa), 10 h
T10 construct: SMYD2 Full-length
Method: as §1, §2, §3

[11] = biological target: T11, SMYD3 (Homo sapiens, UniProt Q9H7B4); test: PMT filter-paper methylation assay, SMYD3; conditions: SMYD3 125 nM final, MAP3K2 (1-350 aa), 2 h
T11 sequence (Q9H7B4 1-428): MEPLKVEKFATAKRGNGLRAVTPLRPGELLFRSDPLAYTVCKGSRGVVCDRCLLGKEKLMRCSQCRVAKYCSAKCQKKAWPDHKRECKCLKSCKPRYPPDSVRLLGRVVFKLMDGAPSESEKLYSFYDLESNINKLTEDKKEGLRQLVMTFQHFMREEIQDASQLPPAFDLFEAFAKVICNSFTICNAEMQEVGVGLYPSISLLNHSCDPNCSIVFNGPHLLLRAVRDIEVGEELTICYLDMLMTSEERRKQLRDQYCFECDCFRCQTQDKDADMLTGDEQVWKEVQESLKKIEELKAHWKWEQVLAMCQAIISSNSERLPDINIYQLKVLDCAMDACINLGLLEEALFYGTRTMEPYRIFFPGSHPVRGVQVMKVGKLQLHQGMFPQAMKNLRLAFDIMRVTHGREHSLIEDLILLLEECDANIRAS
Method: as §1, §2, §3

[12] = biological target: PRMT8 (Homo sapiens, UniProt Q9NR22); test: PMT filter-paper methylation assay, PRMT8
Method: as §1, §2, §3

[13] = biological target: MLL1 (Homo sapiens, UniProt Q03164); test: PMT filter-paper methylation assay, MLL1
Method: as §1, §2, §3

T10 sequence (Q9NRG4 whole entry, the tested form may be a part): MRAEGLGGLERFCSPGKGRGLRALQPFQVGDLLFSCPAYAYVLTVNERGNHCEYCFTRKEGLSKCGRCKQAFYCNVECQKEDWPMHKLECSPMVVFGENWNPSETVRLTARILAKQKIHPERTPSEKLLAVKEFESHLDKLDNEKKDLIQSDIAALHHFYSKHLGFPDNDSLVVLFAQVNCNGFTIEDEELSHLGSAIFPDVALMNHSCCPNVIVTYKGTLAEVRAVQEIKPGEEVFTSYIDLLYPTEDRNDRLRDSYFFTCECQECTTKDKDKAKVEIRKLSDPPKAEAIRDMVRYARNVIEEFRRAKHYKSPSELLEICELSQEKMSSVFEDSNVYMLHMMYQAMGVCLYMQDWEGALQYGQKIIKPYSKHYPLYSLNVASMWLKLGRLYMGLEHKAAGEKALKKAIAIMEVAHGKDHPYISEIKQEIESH
T6 sequence (Q99873 10-352 isoform Q99873-3): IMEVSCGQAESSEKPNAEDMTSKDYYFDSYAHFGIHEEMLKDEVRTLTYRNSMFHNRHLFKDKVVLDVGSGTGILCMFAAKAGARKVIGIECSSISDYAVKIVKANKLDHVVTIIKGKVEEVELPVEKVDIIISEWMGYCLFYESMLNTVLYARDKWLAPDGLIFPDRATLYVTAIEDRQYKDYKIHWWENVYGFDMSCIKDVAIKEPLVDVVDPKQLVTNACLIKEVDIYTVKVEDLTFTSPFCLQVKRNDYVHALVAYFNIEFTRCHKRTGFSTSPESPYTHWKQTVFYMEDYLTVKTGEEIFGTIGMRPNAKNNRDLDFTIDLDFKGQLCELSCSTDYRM
PRMT8, sequence (Q9NR22 whole entry): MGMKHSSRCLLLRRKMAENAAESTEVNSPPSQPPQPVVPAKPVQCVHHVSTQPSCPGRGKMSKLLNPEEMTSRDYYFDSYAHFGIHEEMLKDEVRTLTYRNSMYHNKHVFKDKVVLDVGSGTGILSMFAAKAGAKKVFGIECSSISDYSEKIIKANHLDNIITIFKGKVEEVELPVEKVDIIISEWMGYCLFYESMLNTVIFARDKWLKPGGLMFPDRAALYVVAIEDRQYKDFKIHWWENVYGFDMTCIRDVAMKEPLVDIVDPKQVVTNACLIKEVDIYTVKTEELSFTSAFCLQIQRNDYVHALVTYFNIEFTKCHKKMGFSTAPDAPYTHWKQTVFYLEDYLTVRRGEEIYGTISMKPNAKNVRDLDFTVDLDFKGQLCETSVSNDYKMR
T8 sequence (Q9H5I1 112-410): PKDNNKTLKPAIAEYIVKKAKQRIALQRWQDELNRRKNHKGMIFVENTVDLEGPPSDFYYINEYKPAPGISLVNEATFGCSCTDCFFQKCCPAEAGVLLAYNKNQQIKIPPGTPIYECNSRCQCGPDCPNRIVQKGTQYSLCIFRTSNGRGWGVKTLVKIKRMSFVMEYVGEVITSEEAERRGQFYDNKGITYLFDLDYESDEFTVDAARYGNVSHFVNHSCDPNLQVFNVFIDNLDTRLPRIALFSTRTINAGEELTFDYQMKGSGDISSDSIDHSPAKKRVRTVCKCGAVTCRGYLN
T7 sequence (O60678 211-531): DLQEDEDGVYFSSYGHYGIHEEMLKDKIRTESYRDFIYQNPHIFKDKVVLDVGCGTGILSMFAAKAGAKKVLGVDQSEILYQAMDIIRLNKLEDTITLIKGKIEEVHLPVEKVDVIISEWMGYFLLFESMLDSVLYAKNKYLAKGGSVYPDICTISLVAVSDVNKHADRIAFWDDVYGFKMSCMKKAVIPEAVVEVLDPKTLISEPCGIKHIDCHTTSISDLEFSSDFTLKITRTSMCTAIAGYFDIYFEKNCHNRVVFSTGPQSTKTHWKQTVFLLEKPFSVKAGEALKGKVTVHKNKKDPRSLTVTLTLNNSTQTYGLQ

CC(C)(C)c1ccc(NC(=O)NCCC[C@H](CNCc2ccccc2)C[C@H]2O[C@@H](n3cnc4c(N)ncnc43)C(O)C2O)cc1 (some centres unmarked) [Example 104]
pIC50 [1]: < 4.30 | pIC50 [2]: < 4.30 | pIC50 [3]: < 4.30 | pIC50 [4]: < 4.30 | pIC50 [5]: 4.35 | pIC50 [6]: < 4.30 | pIC50 [7]: < 4.30 | pIC50 [8]: < 4.30 | pIC50 ([9]; CARM1 (19-608)^a 300 nM final enzyme, read-out: IC50 CARM1^a): 6.52 | pIC50 ([9]; CARM1 (19-608)^b 25 nM final enzyme, read-out: IC50 CARM1^b): 7.30 | pIC50 [10]: < 4.30 | pIC50 [11]: < 4.30 | pIC50 [12]: < 4.30 | pIC50 [13]: 5.35
